Measurements published in patent US9801880B2, “Use of kinase inhibitors” (BerGenBio AS, priority 2013, dated 2017).

Experiments:
[1] = target: T1, Flt3 (D835H) (Homo sapiens, UniProt P36888, D835H); test: KinomeScan competition binding assay
T1 construct: purchased DiscoveRx Corporation (KinomeScan service)
Source text: (§1) Detailed assay methodologies can be found in the relevant references cited herein, or in the KinaseProfiler Service Assay Protocols (v54, 2011) available from EMD Millipore (www.emdmillipore.com), or from the KinomeScan website (www.kinomescan.com), as appropriate. (For a more detailed description of KINOMEscan's assay technology, see: Fabian et al. A small molecule-kinase interaction map for clinical kinase inhibitors. Nat. Biotechnol. 23, 329-336 (2005)). A summary is provided below.
(§2) KinomeScan™ assays (DiscoveRx Corporation, San Diego, Calif., USA) are active-site-directed competition binding assays. […] The amount of kinase captured in test versus control samples is determined by using a qPCR method that detects the associated DNA label on each kinase molecule. Dissociation constants (Kd) for test compound-kinase interactions are calculated by measuring the amount of kinase captured on the solid support as a function of the test compound concentration.

[2] = target: T2, Ret (M918T) (Homo sapiens, UniProt P07949, M918T); test: KinomeScan competition binding assay
T2 construct: purchased DiscoveRx Corporation (KinomeScan service)
Source text: as §1, §2

[3] = target: T3, Ysk4 (Homo sapiens, UniProt Q56UN5); test: KinomeScan competition binding assay
T3 construct: purchased DiscoveRx Corporation (KinomeScan service)
Source text: as §1, §2

[4] = test system: T315I-mutated BCR-ABL1 transduced bone marrow cells; test: Preclinical CML model, bone marrow cells transduced with T315I-mutated BCR-ABL1; assay type: in vivo; conditions: 25 (or 50) mg/Kg twice per day; Balb/c mice
Description: 6- to 8 week old male Balb/c mice were sublethally irradiated and i.v. injected with 0.5×10^6 retroviral transduced BM cells (pMSCV_gfp/BCR-ABL_T315I).
Bone marrow donor mice: To harvest donor bone marrow mice were injected subcutaneously with 5-FU (150 mg/kg mice). The bone marrow was isolated five days later and transduced with the desired retroviral construct. [Daley, G. Q., R. A. Van Etten, and D. Baltimore, Induction of chronic myelogenous leukemia in mice by the P210bcr/abl gene of the Philadelphia chromosome. Science, 1990. 247(4944): p. 824-30.]

[5] = target: Stk10 (Homo sapiens, UniProt O94804); test: KinomeScan competition binding assay; parameters: purchased DiscoveRx Corporation (KinomeScan service)
Source text: as §1, §2

[6] = target: Ret (V804M) (Homo sapiens, UniProt P07949, V804M); test: KinomeScan competition binding assay; parameters: purchased DiscoveRx Corporation (KinomeScan service)
Source text: as §1, §2

[7] = target: Abl(M351T) (Homo sapiens, UniProt P00519, M351T); test: KinomeScan competition binding assay; parameters: purchased DiscoveRx Corporation (KinomeScan service)
Source text: as §1, §2

[8] = target: Abl(H396P) (Homo sapiens, UniProt P00519, H396P); test: KinomeScan competition binding assay; parameters: purchased DiscoveRx Corporation (KinomeScan service)
Source text: as §1, §2

[9] = target: c-Kit (D816H) (Homo sapiens, UniProt P10721, D816H); test: KinomeScan competition binding assay; parameters: purchased DiscoveRx Corporation (KinomeScan service)
Source text: as §1, §2

[10] = target: Flt3 (Homo sapiens, UniProt P36888); test: KinomeScan competition binding assay; parameters: purchased DiscoveRx Corporation (KinomeScan service); conditions: Flt3 wild-type
Source text: as §1, §2

[11] = target: Flt1 (Homo sapiens, UniProt P17948); test: KinomeScan competition binding assay; parameters: purchased DiscoveRx Corporation (KinomeScan service)
Source text: as §1, §2

[12] = target: Abl (T315I) (Homo sapiens, UniProt P00519, T315I); test: KinomeScan competition binding assay; parameters: purchased DiscoveRx Corporation (KinomeScan service)
Source text: as §1, §2

[13] = target: Yes (Homo sapiens, UniProt P07947); test: KinomeScan competition binding assay; parameters: purchased DiscoveRx Corporation (KinomeScan service)
Source text: as §1, §2

[14] = target: TEK (Homo sapiens, UniProt Q02763); test: KinomeScan competition binding assay; parameters: purchased DiscoveRx Corporation (KinomeScan service)
Source text: as §1, §2

[15] = target: Flt3 (D835Y) (Homo sapiens, UniProt P36888, D835Y); test: KinomeScan competition binding assay; parameters: purchased DiscoveRx Corporation (KinomeScan service)
Source text: as §1, §2

[16] = target: Abl(Q252H) (Homo sapiens, UniProt P00519, Q252H); test: KinomeScan competition binding assay; parameters: purchased DiscoveRx Corporation (KinomeScan service)
Source text: as §1, §2

[17] = target: Flt4 (Homo sapiens, UniProt P35916); test: KinomeScan competition binding assay; parameters: purchased DiscoveRx Corporation (KinomeScan service)
Source text: as §1, §2

[18] = target: Abl(Y253F) (Homo sapiens, UniProt P00519, Y253F); test: KinomeScan competition binding assay; parameters: purchased DiscoveRx Corporation (KinomeScan service)
Source text: as §1, §2

[19] = target: Wee1 (Homo sapiens, UniProt P30291); test: KinomeScan competition binding assay; parameters: purchased DiscoveRx Corporation (KinomeScan service)
Source text: as §1, §2

[20] = target: c-Kit (D816V) (Homo sapiens, UniProt P10721, D816V); test: KinomeScan competition binding assay; parameters: purchased DiscoveRx Corporation (KinomeScan service)
Source text: as §1, §2

[21] = target: Tyro3 (Homo sapiens, UniProt Q06418); test: KinomeScan competition binding assay; parameters: purchased DiscoveRx Corporation (KinomeScan service)
Source text: as §1, §2

[22] = target: Ret (V804L) (Homo sapiens, UniProt P07949, V804L); test: KinomeScan competition binding assay; parameters: purchased DiscoveRx Corporation (KinomeScan service)
Source text: as §1, §2

[23] = target: Ret (Homo sapiens, UniProt P07949); test: KinomeScan competition binding assay; parameters: purchased DiscoveRx Corporation (KinomeScan service)
Source text: as §1, §2

T3 sequence (Q56UN5 whole entry): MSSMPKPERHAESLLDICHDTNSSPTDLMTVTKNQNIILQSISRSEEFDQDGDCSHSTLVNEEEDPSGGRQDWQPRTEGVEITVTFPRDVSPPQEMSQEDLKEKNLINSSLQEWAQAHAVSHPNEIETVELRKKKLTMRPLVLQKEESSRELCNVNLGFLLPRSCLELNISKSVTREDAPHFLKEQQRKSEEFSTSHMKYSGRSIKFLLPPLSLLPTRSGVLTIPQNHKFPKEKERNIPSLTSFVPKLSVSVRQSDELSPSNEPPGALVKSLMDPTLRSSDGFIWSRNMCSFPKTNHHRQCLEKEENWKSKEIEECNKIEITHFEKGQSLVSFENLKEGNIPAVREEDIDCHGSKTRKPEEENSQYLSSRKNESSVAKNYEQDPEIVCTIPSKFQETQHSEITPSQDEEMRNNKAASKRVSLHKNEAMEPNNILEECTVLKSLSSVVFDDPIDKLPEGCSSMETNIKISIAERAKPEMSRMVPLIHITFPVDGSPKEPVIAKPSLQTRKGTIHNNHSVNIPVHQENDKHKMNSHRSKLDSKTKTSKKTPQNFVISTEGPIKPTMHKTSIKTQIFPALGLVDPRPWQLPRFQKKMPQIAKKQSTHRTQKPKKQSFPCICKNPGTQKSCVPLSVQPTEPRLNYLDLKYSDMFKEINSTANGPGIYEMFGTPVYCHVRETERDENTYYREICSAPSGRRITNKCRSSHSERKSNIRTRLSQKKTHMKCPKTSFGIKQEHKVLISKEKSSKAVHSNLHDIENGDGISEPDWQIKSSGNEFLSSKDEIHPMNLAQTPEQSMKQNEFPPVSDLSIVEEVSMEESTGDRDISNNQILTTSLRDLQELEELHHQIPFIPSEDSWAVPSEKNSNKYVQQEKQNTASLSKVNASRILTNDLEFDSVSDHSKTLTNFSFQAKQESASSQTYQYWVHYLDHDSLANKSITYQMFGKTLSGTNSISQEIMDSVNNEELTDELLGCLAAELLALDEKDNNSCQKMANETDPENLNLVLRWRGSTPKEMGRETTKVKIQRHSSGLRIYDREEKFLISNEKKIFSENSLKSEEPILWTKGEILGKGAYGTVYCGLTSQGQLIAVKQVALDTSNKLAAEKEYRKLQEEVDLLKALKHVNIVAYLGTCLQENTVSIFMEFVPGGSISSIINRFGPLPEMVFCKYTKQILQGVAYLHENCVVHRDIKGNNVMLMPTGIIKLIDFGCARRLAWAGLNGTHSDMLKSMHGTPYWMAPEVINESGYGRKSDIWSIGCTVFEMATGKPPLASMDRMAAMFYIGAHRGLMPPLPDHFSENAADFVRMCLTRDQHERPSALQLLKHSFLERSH
Chain of TEK (Q02763 23-1124): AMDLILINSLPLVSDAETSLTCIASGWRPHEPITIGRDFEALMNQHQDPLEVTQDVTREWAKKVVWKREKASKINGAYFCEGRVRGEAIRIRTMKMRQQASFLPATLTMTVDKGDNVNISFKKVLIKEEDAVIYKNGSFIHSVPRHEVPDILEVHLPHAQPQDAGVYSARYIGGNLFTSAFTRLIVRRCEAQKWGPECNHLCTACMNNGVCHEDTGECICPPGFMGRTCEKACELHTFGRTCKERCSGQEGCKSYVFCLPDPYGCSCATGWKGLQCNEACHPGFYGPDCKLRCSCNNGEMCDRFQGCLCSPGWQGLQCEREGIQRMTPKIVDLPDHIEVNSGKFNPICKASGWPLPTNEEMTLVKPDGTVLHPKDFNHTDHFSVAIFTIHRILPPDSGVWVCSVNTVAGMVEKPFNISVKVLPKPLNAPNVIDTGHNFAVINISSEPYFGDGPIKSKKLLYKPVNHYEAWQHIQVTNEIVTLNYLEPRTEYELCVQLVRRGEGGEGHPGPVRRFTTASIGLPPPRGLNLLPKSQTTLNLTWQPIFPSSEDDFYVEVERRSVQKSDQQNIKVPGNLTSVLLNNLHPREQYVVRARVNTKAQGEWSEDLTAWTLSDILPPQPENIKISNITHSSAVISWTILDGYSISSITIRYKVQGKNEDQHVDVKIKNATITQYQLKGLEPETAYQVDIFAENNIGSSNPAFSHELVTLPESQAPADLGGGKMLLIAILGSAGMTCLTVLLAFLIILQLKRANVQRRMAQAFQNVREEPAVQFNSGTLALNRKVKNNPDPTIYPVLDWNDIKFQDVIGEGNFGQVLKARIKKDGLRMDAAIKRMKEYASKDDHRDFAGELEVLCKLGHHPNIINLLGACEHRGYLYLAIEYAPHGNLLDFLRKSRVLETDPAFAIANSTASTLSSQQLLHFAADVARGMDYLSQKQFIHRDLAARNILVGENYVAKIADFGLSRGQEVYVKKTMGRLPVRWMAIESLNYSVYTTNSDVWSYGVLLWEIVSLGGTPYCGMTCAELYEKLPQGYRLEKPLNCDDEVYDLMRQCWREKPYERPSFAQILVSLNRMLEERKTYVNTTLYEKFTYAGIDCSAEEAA
Chain of Stk10 (O94804 whole entry): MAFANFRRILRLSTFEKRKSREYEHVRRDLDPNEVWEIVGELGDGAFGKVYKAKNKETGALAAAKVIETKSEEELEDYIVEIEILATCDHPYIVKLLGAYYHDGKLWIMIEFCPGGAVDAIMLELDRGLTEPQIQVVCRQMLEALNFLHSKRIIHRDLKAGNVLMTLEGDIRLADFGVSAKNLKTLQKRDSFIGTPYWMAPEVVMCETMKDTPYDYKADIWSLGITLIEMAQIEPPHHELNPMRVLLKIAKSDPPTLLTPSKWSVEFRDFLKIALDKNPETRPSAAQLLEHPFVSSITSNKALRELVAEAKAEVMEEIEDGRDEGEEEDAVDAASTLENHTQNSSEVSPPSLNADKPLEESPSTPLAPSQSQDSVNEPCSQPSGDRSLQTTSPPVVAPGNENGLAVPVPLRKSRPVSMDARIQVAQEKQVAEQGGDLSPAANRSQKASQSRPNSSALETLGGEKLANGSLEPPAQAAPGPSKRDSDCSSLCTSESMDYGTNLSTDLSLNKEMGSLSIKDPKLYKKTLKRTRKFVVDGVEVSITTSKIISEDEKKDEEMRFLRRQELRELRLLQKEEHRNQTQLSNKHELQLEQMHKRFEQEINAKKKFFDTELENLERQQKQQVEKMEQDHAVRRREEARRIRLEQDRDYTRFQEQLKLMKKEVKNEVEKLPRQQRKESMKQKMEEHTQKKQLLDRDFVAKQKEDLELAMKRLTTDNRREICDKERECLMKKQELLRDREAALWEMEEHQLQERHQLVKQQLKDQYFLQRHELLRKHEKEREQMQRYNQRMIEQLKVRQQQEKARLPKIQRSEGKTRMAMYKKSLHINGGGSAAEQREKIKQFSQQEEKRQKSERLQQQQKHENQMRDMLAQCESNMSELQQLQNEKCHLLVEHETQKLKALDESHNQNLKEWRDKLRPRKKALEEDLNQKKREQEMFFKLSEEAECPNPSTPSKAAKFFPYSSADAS
Chain of Ret (P07949 29-1114): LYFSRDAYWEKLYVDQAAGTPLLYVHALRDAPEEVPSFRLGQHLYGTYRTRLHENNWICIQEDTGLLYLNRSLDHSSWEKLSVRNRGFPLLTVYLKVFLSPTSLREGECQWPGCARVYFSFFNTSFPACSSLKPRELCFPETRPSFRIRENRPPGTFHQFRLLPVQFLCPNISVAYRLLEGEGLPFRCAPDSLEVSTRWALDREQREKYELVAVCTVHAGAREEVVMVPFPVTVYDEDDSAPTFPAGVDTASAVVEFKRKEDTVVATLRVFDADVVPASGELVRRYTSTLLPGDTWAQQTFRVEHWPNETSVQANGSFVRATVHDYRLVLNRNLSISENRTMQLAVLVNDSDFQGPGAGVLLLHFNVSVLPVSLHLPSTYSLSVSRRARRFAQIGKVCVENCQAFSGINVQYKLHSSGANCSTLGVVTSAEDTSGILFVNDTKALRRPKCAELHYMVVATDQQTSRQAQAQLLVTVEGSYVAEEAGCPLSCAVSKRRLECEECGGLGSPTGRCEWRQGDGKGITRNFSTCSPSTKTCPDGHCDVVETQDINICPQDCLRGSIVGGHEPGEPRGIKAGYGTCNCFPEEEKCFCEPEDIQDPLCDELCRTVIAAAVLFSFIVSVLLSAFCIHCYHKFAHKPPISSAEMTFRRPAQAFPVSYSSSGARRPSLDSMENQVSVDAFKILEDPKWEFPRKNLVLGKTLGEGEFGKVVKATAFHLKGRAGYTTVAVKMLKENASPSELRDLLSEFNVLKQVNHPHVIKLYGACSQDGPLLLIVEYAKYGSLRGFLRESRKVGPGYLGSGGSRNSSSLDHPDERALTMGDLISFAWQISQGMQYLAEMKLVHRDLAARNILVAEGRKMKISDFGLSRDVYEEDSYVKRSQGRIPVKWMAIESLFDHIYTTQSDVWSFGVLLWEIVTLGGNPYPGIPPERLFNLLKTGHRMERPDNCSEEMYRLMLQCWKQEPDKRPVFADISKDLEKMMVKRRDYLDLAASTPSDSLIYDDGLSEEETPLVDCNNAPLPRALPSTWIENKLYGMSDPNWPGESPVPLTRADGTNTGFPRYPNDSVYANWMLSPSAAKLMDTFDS
Chain of Yes (P07947 whole entry): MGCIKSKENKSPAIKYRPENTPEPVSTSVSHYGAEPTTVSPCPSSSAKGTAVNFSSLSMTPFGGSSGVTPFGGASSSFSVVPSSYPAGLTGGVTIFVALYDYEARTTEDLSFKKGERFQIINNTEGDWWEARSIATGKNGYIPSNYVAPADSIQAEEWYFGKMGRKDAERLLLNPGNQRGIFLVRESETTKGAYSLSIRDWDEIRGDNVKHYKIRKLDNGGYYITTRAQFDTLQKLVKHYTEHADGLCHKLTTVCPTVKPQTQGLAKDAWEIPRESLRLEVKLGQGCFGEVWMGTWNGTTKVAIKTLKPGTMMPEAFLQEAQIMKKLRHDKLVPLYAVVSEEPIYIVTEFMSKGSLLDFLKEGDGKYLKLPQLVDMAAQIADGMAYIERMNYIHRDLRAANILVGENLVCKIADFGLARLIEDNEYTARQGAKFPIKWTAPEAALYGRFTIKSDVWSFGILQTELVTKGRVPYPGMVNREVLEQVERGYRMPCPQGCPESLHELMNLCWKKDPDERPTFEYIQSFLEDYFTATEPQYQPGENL
Chain of Ret (V804L) (P07949 29-1114 V804L): as the sequence (P07949 29-1114) above, with V776L counted along it
Chain of Ret (V804M) (P07949 29-1114 V804M): as the sequence (P07949 29-1114) above, with V776M counted along it

Compound Nc1nc(Nc2ccc3c(c2)CC[C@@H](N2CCCC2)CC3)nn1-c1cc2c(nn1)-c1ccccc1CCC2 [Compound A, 1-(6,7-dihydro-5H-benzo[6,7]cyclohepta[1,2-c]pyridazine-3-yl)-N^3-(7-(S)-(pyrrolidin-1-yl)-6,7,8,9-tetrahydro-5H-benzo[7]annulene-2-yl)-1H-1,2,4-triazole-3,5-diamine] has a Kd [1] of 8.4 nM, a Kd [2] of 30 nM and a Kd [3] of 1.6 nM. The leukemia cell burden [4] was “reduced leukemia cell burden”, the Kd [5] was 9.2 nM and the Kd [6] was 72 nM. The Kd [7] was 104 nM, the Kd [8] was 57 nM and the Kd [9] was 63 nM. It also gave a Kd [10] of 50 nM, a Kd [11] of 400 nM and a Kd [12] of 10 nM. The Kd [13] was 810 nM, the Kd [14] was 270 nM and the Kd [15] was 11.2 nM. It also gave a Kd [16] of 112 nM, a Kd [17] of 460 nM and a Kd [18] of 18 nM. For the same compound, the Kd [19] was 17 nM, the Kd [20] was 10.2 nM and the Kd [21] was > 1000 nM. The Kd [22] was 90 nM and the Kd [23] was 73 nM.
